Results taken from patent US10611748B2, “Xanthone derivatives for the treatment of hepatitis B virus disease” (Hoffmann-La Roche Inc., priority 2017, dated 2020).

System: extracellular HBeAg level (surrogate marker for cccDNA) in HepDES19 cells
Assay: HepDES19 primary screen assay
Assay type: cell-based, HBV
Conditions: Hepatitis B virus, 120 h, 5 days compound incubation, HBeAg ELISA
From the text: The assay was employed to primarily screen for novel cccDNA inhibitors. HepDES19 is an engineered cell line which contains a 1.1 unit length HBV genome, and pgRNA transcription from the transgene is controlled by Tetracycline (Tet). In the absence of Tet, pgRNA transcription will be induced, but HBV e antigen (HBeAg) could not be produced from this pgRNA due to the fact that the very short leader sequence before the HBeAg start codondisrupted the start codon. Only after cccDNA is formed, the missing leader sequence and start codon mutation would be restored from the 3′-terminal redundancy of pgRNA, and then HBeAg could be synthesized. Therefore, HBeAg could be used as a surrogate marker for cccDNA (Zhou, T. et al., Antiviral Res(2006), 72(2), 116-124; Guo, H. et al., J. Virol (2007), 81(22), 12472-12484).
HepDES19 cells were seeded at 2×10^6 cells per T150 flask and cultured with the culture medium (Dulbecco's Modified Eagle Medium: Nutrient Mixture F-12 (DMEM:F12, Gibco Cat. 11320-82), 10% Fetal Bovine Serum (FBS, Clontech Cat. 631101), 0.1 mM Non-Essential Amino Acids Solution (NEAA, Gibco Cat. 11140-050), 50 μg/mL Penicillin-Streptomycin (PS, Invitrogen Cat. 15140-163), 500 μg/mL Geneticin (G418, Invitrogen Cat. 10131-027) containing 3 μg/mL Tet (Sigma, Cat. 87128) for 5 days. Cells were then seeded at 4×10^6 cells per T150 in the same culture medium as described above in the absence of Tet for 8 days. Cells were then harvested and frozen at density of 2×10^6 cells per mL. For compound testing, the frozen cells were thawed and seeded into 96-well plates at a density of 6×10^4 cells per well. At 24 hrs after seeding, half log serial dilutions of compounds made with Dimethyl sulfoxide (DMSO, Sigma, Cat. D2650) were further diluted with the same culture medium as described above before they were added to the cells to reach desired final compound concentrations and 1% DMSO concentration. Plates were then incubated at 37° C. for another 5 days before measurement of HBeAg level and cell viability. Extracellular HBeAg level were measured with enzyme-linked immunosorbent assay (ELISA) kit (Shanghai Kehua Diagnostic Medical Products Co., Ltd). Cell viability was assessed using Cell Counting Kit-8 (Donjindo, Cat. CK04-20). IC50 values were derived from the dose-response curve using 4 parameter logistic curve fit method.
The compounds of the present invention were tested for their capacity to inhibit extracellular HBeAg level as described herein.

| Structure (SMILES) | IC50 [µM] |
| --- | --- |
| CN(C)C(=O)C1CCN(c2ccc3c(=O)c4cccc(Cl)c4oc3c2)C1 (centres unmarked) [Example 46, 1-(5-chloro-9-oxo-xanthen-3-yl)-N,N-dimethyl-pyrrolidine-3-carboxamide] | 4.3 |
| O=c1c2cc(F)c(N3CCCC3)cc2oc2c(F)cccc12 [Example 28, 2,5-difluoro-3-pyrrolidin-1-yl-xanthen-9-one] | 1.86 |
| CC(=O)OC(c1cccc(F)c1Cl)C1c2ccc(N3CCCC3)cc2Oc2c(Cl)cccc21 (centres unmarked) [Example 58, [(2-chloro-3-fluoro-phenyl)-(5-chloro-3-pyrrolidin-1-yl-9H-xanthen-9-yl)methyl]acetate] | 11.7 |
| O=C(O)CC1CCN(c2ccc3c(=O)c4cccc(Cl)c4oc3c2)C1 (centres unmarked) [Example 8, 2-[1-(5-chloro-9-oxo-xanthen-3-yl)pyrrolidin-3-yl]acetic Acid] | 7.53 |
| O=C(O)[C@@H]1CCN(c2ccc3c(=O)c4cccc(Cl)c4sc3c2)C1 [Example 73, (3R)-1-(5-chloro-9-oxo-thioxanthen-3-yl)pyrrolidine-3-carboxylic Acid] | 2.6 |
| Cc1cc2c(=O)c3cccc(Cl)c3oc2cc1N1CC[C@@H](C(=O)O)C1 [Example 74, (3R)-1-(5-chloro-2-methyl-9-oxo-xanthen-3-yl)pyrrolidine-3-carboxylic Acid] | 2.6 |
| Clc1cccc2c1Oc1cc(N3CCCC3)ccc1C2 [Example 55, 1-(5-chloro-9H-xanthen-3-yl)pyrrolidine] | 1.11 |
| CN1CCN(c2ccc3c(=O)c4cccc(F)c4oc3c2)CC1 [Example 38, 5-fluoro-3-(4-methylpiperazin-1-yl)xanthen-9-one] | 16.1 |
| O=C(O)C1CCN(c2ccc3c(=O)c4cccc(C(F)(F)F)c4oc3c2)C1 (centres unmarked) [Example 37, 1-[9-oxo-5-(trifluoromethyl)xanthen-3-yl]pyrrolidine-3-carboxylic Acid] | 13.4 |
| O=C(O)[C@H]1CN(c2ccc3c(=O)c4cccc(Cl)c4oc3c2)C[C@@H]1c1ccc(F)cc1 [Example 15, (3R,4S)-1-(5-chloro-9-oxo-xanthen-3-yl)-4-(4-fluorophenyl)pyrrolidine-3-carboxylic Acid] | 7.39 |
| COC1(C(F)(F)F)c2ccc(N3CCCC3)cc2Oc2c(Cl)cccc21 (centres unmarked) [Example 60, 1-[5-chloro-9-methoxy-9-(trifluoromethyl)xanthen-3-yl]pyrrolidine] | 22.2 |
| Clc1cccc2c1Oc1cc(N3CCCC3)ccc1C2C1COC1 (centres unmarked) [Example 57, 1-[5-chloro-9-(oxetan-3-yl)-9H-xanthen-3-yl]pyrrolidine] | 7.33 |
| O=c1c2ccc(N3CCCCC3)cc2oc2c(F)cccc12 [Example 9, 5-fluoro-3-(1-piperidyl)xanthen-9-one] | 0.98 |
| O=c1c2ccc(N3CCCC3)cc2oc2c(F)cc(Cl)cc12 [Example 35, 2-chloro-4-fluoro-6-pyrrolidin-1-yl-xanthen-9-one] | 16.7 |
| O=C(O)C1CCN(c2ccc3c(=O)c4cc(Cl)cc(Cl)c4oc3c2)C1 (centres unmarked) [Example 70, 1-(5,7-dichloro-9-oxo-xanthen-3-yl)pyrrolidine-3-carboxylic Acid] | 5.9 |
| O=c1c2ccc(N3CCCC3)nc2oc2c(Cl)cccc12 [Example 64, 9-chloro-2-pyrrolidin-1-yl-chromeno[2,3-b]pyridin-5-one] | 35 |
| O=c1c2ccc(N3CCCCCC3)cc2oc2c(F)cccc12 [Example 13, 3-(azepan-1-yl)-5-fluoro-xanthen-9-one] | 5.49 |
| O=c1c2ccc(N3CCCC3)cc2oc2c(F)cccc12 [Example 21, 5-fluoro-3-pyrrolidin-1-yl-xanthen-9-one] | 0.27 |
| O=c1c2cc(Cl)c(N3CCCC3)cc2oc2c(F)cccc12 [Example 68, 2-chloro-5-fluoro-3-pyrrolidin-1-yl-xanthen-9-one] | 1.18 |

| Structure (SMILES) | IC50 [µM] |
| --- | --- |
| O=C(O)C1CCCN1c1ccc2c(=O)c3cccc(Cl)c3oc2c1 (centres unmarked) [Example 36, 1-(5-chloro-9-oxo-xanthen-3-yl)pyrrolidine-2-carboxylic Acid] | 11.5 |
| O=c1c2ccc(N3CCC4(CNC4)C3)cc2oc2c(F)cccc12 [Example 47, 3-(2,6-diazaspiro[3.4]octan-6-yl)-5-fluoro-xanthen-9-one] | 4.77 |
| O=C1CCCN1c1ccc2c(=O)c3cccc(F)c3oc2c1 [Example 23, 1-(5-fluoro-9-oxo-xanthen-3-yl)pyrrolidin-2-one] | 0.83 |
| COC(=O)C1CCN(c2ccc3c(=O)c4cccc(Cl)c4oc3c2)C1 (centres unmarked) [Example 11, Methyl 1-(5-chloro-9-oxo-xanthen-3-yl)pyrrolidine-3-carboxylate] | 1.17 |
| O=C(C1CCN(c2ccc3c(=O)c4cccc(Cl)c4oc3c2)C1)N1CCOCC1 (centres unmarked) [Example 65, 5-chloro-3-[3-(morpholine-4-carbonyl)pyrrolidin-1-yl]xanthen-9-one] | 3.89 |
| O=c1c2ccc(N3CCCC3)cc2oc2c(Cl)cccc12 [Example 1, 5-chloro-3-pyrrolidin-1-yl-xanthen-9-one] | 0.23 |
| O=c1c2ccc(N3CCCC3)cc2oc2c(F)ccc(Cl)c12 [Example 22, 1-chloro-4-fluoro-6-pyrrolidin-1-ylxanthen-9-one] | 0.74 |
| O=C(O)C1CCN(c2ccc3c(=O)c4cc(F)cc(Cl)c4oc3c2)C1 (centres unmarked) [Example 71, 1-(5-chloro-7-fluoro-9-oxo-xanthen-3-yl)pyrrolidine-3-carboxylic Acid] | 13 |
| N[C@H]1CCN(c2ccc3c(=O)c4cccc(F)c4oc3c2)C1 [Example 50, 3-[(3S)-3-aminopyrrolidin-1-yl]-5-fluoro-xanthen-9-one] | 3.12 |
| O=c1c2ccc(N3CC[C@@H](O)C3)cc2oc2c(F)cccc12 [Example 32, 5-fluoro-3-[(3R)-3-hydroxypyrrolidin-1-yl]xanthen-9-one] | 2.72 |
| O=c1c2ccc(N3CCCC(O)C3)cc2oc2c(Cl)cccc12 (centres unmarked) [Example 12, 5-chloro-3-(3-hydroxy-1-piperidyl)xanthen-9-one] | 2.88 |
| Fc1cccc2c1Oc1cc(N3CCCC3)ccc1C2 [Example 62, 1-(5-fluoro-9H-xanthen-3-yl)pyrrolidine] | 3.99 |
| O=c1c2ccc(N3CC[C@@H](O)C3)cc2oc2c(Cl)cccc12 [Example 30, 5-chloro-3-[(3R)-3-hydroxypyrrolidin-1-yl]xanthen-9-one] | 2.63 |
| O=C(O)C1(C(F)(F)F)CCN(c2ccc3c(=O)c4cccc(Cl)c4oc3c2)C1 (centres unmarked) [Example 19, 1-(5-chloro-9-oxo-xanthen-3-yl)-3-(trifluoromethyl)pyrrolidine-3-carboxylic Acid] | 27 |
| Fc1cccc2c1Oc1cc(N3CCCC3)ccc1C21CCCO1 (centres unmarked) [Example 52, 1-(5′-fluorospiro[tetrahydrofuran-2,9′-xanthene]-3′-yl)pyrrolidine] | 14.5 |
| CC1(C(=O)O)CCN(c2ccc3c(=O)c4cccc(Cl)c4oc3c2)C1 (centres unmarked) [Example 16, 1-(5-chloro-9-oxo-xanthen-3-yl)-3-methyl-pyrrolidine-3-carboxylic Acid] | 11.2 |
| COC1CCN(c2ccc3c(=O)c4cccc(F)c4oc3c2)C1 (centres unmarked) [Example 33, 5-fluoro-3-(3-methoxypyrrolidin-1-yl)xanthen-9-one] | 4.06 |
| O=c1c2ccc(N3CCCC3)nc2oc2c(F)cccc12 [Example 63, 9-fluoro-2-pyrrolidin-1-yl-chromeno[2,3-b]pyridin-5-one] | 19.2 |
| O=c1c2cnc(N3CCCC3)cc2oc2c(F)cccc12 [Example 45, 6-fluoro-3-pyrrolidin-1-yl-chromeno[3,2-c]pyridin-10-one] | 0.51 |
